US20080009418A1, “Selective Inhibitors” (Alchemia LTD., priority 2004, published 2008)

Key:
Human Melanocortin (MC4) = target: T1, Human Melanocortin (MC4) (Homo sapiens, UniProt P32245); assay: Radioligand binding, human melanocortin MC4 membranes, FlashPlate, [125I]-NDP-αMSH; settings: compound at 10 μM, [125I]-NDP-αMSH
T1 construct: purchased Perkin Elmer Biosignal
Summary of the method: (§1)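 Cloned human receptor membranes were coated onto FlashPlate wells and incubated with radioligand and compound (added from a 0.5 mM DMSO daughter plate) for 1 hour at room temperature in the dark. Scintillation counting gave percent inhibition, with DMSO defining total and reference ligand defining non-specific binding.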

Human μ-opioid (MOP) = target: T2, Human μ-opioid (MOP) (Homo sapiens, UniProt P35372); assay: Radioligand binding, human μ-opioid (MOP) membranes, FlashPlate, [3H]-Naloxone; settings: compound at 10 μM, [3H]-Naloxone
T2 construct: purchased Perkin Elmer Biosignal
T2 sequence (P35372 whole entry): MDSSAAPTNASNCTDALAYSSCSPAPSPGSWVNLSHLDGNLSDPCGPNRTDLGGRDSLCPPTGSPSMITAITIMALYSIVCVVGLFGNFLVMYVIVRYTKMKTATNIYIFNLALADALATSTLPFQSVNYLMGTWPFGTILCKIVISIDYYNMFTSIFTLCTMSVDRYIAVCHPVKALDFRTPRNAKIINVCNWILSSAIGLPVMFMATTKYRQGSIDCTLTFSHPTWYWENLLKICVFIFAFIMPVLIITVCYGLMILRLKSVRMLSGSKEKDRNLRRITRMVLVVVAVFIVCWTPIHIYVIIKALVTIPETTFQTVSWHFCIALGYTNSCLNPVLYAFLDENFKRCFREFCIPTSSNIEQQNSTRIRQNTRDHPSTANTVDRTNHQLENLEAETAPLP
Summary of the method: as §1

Human opioid (ORL1) = target: T3, Human opioid (ORL1) (Homo sapiens, UniProt P41146); assay: Radioligand binding, human opioid ORL1 membranes, FlashPlate, [125I]-Nociceptin; settings: compound at 10 μM, [125I]-Nociceptin
T3 construct: purchased Perkin Elmer Biosignal
T3 sequence (P41146 whole entry): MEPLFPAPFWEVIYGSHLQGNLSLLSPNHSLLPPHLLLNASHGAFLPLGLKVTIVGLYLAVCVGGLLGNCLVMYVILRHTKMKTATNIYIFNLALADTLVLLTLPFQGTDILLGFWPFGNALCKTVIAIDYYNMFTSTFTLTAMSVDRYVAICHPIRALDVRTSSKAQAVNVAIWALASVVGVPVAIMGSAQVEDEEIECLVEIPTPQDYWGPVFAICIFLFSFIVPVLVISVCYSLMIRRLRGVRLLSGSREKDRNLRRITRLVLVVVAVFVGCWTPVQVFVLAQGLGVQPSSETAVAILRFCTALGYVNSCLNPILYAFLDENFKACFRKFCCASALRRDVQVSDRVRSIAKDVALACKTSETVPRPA
Summary of the method: as §1

Human neurokinin (NK1) = target: T4, Human neurokinin (NK1) (Homo sapiens, UniProt P25103); assay: Radioligand binding, human neurokinin NK1 membranes, filtration, [125I]-Substance P; settings: compound at 10 μM, [125I]-Substance P
T4 construct: purchased Perkin Elmer Biosignal
T4 sequence (P25103 whole entry): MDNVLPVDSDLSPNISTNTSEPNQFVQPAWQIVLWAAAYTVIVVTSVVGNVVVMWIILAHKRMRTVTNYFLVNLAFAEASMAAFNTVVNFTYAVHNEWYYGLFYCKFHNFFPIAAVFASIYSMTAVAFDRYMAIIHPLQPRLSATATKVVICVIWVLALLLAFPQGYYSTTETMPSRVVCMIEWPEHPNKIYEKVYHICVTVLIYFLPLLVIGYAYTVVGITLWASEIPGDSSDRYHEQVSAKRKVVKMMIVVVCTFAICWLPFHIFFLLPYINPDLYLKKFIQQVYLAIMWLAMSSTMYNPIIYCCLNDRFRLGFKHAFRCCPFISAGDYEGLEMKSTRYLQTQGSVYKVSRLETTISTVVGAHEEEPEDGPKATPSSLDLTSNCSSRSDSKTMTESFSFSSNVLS
Summary of the method: (§2)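 Percent inhibition of radioligand binding measured on recombinant human membranes: NK1 with [125I]-Substance P, KOP with [3H]-Diprenorphine. Incubation 1 h at room temperature, then harvest onto 0.3% PEI-soaked filters, cold Tris-HCl pH 7.4 washes and scintillation counting; non-specific binding from reference ligand wells.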

[1] = target: T5, Human neuropeptide Y (NPY-Y1) (Homo sapiens, UniProt P25929); assay: Radioligand binding, human neuropeptide Y NPY-Y1 membranes, FlashPlate, [125I]-PYY; settings: compound at 10 μM, [125I]-PYY
T5 construct: purchased Perkin Elmer Biosignal
T5 sequence (P25929 1-384): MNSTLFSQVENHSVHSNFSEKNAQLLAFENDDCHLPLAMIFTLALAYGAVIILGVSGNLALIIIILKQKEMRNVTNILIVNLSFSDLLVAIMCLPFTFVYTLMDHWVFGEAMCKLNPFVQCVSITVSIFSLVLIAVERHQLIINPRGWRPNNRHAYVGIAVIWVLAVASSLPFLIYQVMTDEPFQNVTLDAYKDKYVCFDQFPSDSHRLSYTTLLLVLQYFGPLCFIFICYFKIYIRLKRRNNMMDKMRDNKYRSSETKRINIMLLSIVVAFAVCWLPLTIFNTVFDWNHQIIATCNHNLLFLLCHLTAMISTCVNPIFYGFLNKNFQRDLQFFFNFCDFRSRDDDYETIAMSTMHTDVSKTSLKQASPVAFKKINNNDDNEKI
Summary of the method: as §1

Human melanocortin (MC5) = target: T6, Human melanocortin (MC5) (Homo sapiens, UniProt P33032); assay: Radioligand binding, human melanocortin MC5 membranes, FlashPlate, [125I]-NDP-αMSH; settings: compound at 10 μM, [125I]-NDP-αMSH
T6 construct: purchased Perkin Elmer Biosignal
T6 sequence (P33032 whole entry): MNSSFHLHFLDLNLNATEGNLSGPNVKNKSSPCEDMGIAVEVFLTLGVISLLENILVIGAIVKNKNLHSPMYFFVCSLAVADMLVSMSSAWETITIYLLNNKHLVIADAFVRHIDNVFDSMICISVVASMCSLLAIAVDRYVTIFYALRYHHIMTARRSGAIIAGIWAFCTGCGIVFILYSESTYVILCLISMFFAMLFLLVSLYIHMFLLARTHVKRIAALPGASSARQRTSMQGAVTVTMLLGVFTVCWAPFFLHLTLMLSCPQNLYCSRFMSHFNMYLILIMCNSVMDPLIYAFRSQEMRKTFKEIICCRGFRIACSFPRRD
Summary of the method: as §1

Human κ-Opioid (KOP) = target: T7, Human κ-Opioid (KOP) (Homo sapiens, UniProt P41145); assay: Radioligand binding, human κ-opioid (KOP) membranes, filtration, [3H]-Diprenorphine; settings: compound at 10 μM, [3H]-Diprenorphine
T7 construct: purchased Perkin Elmer Biosignal
T7 sequence (P41145 whole entry): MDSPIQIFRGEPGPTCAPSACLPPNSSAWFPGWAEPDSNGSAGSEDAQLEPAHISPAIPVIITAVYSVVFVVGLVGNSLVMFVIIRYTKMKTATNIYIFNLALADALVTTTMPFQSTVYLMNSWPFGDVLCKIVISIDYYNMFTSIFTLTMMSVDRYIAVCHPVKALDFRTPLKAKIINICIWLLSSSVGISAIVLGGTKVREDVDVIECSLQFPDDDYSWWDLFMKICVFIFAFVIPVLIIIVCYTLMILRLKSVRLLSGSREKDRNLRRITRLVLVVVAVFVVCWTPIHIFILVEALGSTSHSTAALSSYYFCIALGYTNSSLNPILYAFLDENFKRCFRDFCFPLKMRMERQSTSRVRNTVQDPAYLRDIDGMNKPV
Summary of the method: as §2

Human δ-opioid (DOP) = target: T8, Human δ-opioid (DOP) (Homo sapiens, UniProt P41143); assay: Radioligand binding, human δ-opioid (DOP) membranes, FlashPlate, [3H]-Bremazocine; settings: compound at 10 μM, [3H]-Bremazocine
T8 construct: purchased Perkin Elmer Biosignal
T8 sequence (P41143 whole entry): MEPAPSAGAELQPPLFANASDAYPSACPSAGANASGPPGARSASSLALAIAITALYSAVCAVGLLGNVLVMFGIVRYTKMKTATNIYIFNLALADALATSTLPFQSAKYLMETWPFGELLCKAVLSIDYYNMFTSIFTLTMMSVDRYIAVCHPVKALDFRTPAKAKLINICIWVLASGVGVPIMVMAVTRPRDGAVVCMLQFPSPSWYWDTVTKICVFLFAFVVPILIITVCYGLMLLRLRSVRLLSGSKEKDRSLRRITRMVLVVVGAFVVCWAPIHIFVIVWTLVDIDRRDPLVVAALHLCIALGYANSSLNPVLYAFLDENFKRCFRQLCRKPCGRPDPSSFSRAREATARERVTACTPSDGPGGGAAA
Summary of the method: as §1

Mouse urotensin (mUR2) = target: T9, Mouse urotensin (mUR2) (Mus musculus, UniProt Q8VIH9); assay: Radioligand binding, mouse urotensin mUR2 membranes, FlashPlate, [125I]-Urotensin II; settings: compound at 10 μM, [125I]-Urotensin II
T9 construct: purchased Perkin Elmer Biosignal
T9 sequence (Q8VIH9 1-385): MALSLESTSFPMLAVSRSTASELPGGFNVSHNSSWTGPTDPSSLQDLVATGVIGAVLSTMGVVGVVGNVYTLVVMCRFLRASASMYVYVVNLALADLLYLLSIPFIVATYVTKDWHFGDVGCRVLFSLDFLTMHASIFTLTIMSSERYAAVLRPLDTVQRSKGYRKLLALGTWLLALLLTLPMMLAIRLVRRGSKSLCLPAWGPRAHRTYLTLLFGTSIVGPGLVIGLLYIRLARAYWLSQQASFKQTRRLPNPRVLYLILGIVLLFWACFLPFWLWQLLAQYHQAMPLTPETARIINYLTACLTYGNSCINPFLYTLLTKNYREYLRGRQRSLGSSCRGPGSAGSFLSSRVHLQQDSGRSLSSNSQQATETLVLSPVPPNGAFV
Summary of the method: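 Cloned mouse urotensin (mUR2) receptor membranes from Perkin Elmer Biosignal were immobilized in FlashPlate microplates using a proprietary coating. Each well got 19.5 μl buffer, then 0.5 μl of DMSO, reference ligand, or compound. Adding 5 μl of [125I]-Urotensin II, diluted to 5× final concentration in binding buffer, started binding. Plates were sealed with TopSeal-A and incubated 1 hour at room temperature in the dark. Wells were counted for 30 seconds each on a TopCount after a 60-second delay, and percentage inhibition was calculated.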

[2] = target: T10, Human melanin-concentrating hormone (MCH1) (Homo sapiens, UniProt Q99705); assay: Radioligand binding, human melanin-concentrating hormone MCH1 membranes, FlashPlate, [125I]-S36057; settings: compound at 10 μM
T10 construct: purchased Perkin Elmer Biosignal
T10 sequence (Q99705 whole entry): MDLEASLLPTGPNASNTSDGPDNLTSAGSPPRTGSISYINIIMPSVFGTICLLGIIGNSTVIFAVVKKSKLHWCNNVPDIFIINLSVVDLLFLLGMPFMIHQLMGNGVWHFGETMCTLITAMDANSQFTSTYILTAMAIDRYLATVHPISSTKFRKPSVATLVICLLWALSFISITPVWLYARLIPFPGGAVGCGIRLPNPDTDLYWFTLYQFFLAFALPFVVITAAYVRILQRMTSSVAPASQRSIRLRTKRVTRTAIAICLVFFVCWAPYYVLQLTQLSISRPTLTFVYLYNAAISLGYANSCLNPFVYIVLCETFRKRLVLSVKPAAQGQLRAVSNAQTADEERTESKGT
Summary of the method: as §1

Human Melanocortin (MC3) = target: T11, Human Melanocortin (MC3) (Homo sapiens, UniProt P41968); assay: Radioligand binding, human melanocortin MC3 membranes, FlashPlate, [125I]-NDP-αMSH; settings: compound at 10 μM, [125I]-NDP-αMSH
T11 construct: purchased Perkin Elmer Biosignal
T11 sequence (P41968 whole entry): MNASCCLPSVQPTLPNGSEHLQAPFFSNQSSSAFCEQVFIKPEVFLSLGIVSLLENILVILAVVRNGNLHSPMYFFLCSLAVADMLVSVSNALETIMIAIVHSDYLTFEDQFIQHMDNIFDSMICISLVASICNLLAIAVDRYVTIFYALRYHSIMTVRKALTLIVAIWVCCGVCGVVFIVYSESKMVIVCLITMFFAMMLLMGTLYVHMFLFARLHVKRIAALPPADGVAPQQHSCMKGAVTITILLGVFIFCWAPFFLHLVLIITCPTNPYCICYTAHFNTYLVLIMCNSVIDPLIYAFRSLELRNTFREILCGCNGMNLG
Summary of the method: as §1

T1 sequence (P32245 whole entry): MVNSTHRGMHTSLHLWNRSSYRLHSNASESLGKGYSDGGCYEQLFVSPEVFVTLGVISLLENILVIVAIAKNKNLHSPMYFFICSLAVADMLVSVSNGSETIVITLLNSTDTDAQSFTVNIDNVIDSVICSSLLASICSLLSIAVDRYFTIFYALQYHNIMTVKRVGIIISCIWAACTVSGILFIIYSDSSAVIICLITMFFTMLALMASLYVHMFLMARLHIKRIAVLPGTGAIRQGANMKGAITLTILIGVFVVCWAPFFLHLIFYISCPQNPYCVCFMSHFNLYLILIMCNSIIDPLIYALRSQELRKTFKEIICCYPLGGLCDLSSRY

CSC1OC(COCc2ccccc2)C(O)C(OCc2ccc3ccccc3c2)C1NC(=O)CCCN (stereo not shown) [compound 304]
A4: inhibition of radioligand binding, human melanocortin (MC4) (Human Melanocortin (MC4)): − (“−” indicates less than 50% inhibition at 10 μM) | A7: inhibition of radioligand binding, human μ-opioid (MOP) (Human μ-opioid (MOP)): − (“−” indicates less than 50% inhibition at 10 μM) | A10: inhibition of radioligand binding, human opioid (ORL1) (Human opioid (ORL1)): − (“−” indicates less than 50% inhibition at 10 μM) | A8: inhibition of radioligand binding, human neurokinin (NK1) (Human neurokinin (NK1)): + (“+” indicates greater than 50% inhibition at 10 μM) | A9: inhibition of radioligand binding, human neuropeptide Y (NPY-Y1) [1]: − (“−” indicates less than 50% inhibition at 10 μM) | A5: inhibition of radioligand binding, human melanocortin (MC5) (Human melanocortin (MC5)): − (“−” indicates less than 50% inhibition at 10 μM) | A2: inhibition of radioligand binding, human κ-opioid (KOP) (Human κ-Opioid (KOP)): − (“−” indicates less than 50% inhibition at 10 μM) | A1: inhibition of radioligand binding, human δ-opioid (DOP) (Human δ-opioid (DOP)): − (“−” indicates less than 50% inhibition at 10 μM) | A11: inhibition of radioligand binding, mouse urotensin (mUR2) (Mouse urotensin (mUR2)): − (“−” indicates less than 50% inhibition at 10 μM) | A6: inhibition of radioligand binding, human melanin-concentrating hormone (MCH1) ([2]; [125I]-S36057): − (“−” indicates less than 50% inhibition at 10 μM) | A3: inhibition of radioligand binding, human melanocortin (MC3) (Human Melanocortin (MC3)): − (“−” indicates less than 50% inhibition at 10 μM)

NCCC(=O)NC1C(OCc2ccc3ccccc3c2)OC(COCc2ccc(Cl)cc2)C(O)C1OCc1ccccc1 (single isomer, unassigned) [compound 452]
A4: inhibition of radioligand binding (Human Melanocortin (MC4); human MC4 membranes): + (“+” indicates greater than 50% inhibition at 10 μM) | A7: inhibition of radioligand binding (Human μ-opioid (MOP); human MOP membranes): − (“−” indicates less than 50% inhibition at 10 μM) | A10: inhibition of radioligand binding (Human opioid (ORL1); human ORL1 membranes, 10 µM): − (“−” indicates less than 50% inhibition at 10 μM) | A8: inhibition of radioligand binding (Human neurokinin (NK1); human NK1 membranes): + (“+” indicates greater than 50% inhibition at 10 μM) | A9: inhibition of radioligand binding ([1]; human NPY-Y1 membranes): − (“−” indicates less than 50% inhibition at 10 μM) | A5: inhibition of radioligand binding (Human melanocortin (MC5); human MC5 membranes): + (“+” indicates greater than 50% inhibition at 10 μM) | A2: inhibition of radioligand binding (Human κ-Opioid (KOP); human KOP membranes): − (“−” indicates less than 50% inhibition at 10 μM) | A1: inhibition of radioligand binding (Human δ-opioid (DOP); human DOP membranes): − (“−” indicates less than 50% inhibition at 10 μM) | A11: inhibition of radioligand binding (Mouse urotensin (mUR2); mouse mUR2 membranes): − (“−” indicates less than 50% inhibition at 10 μM) | A6: inhibition of radioligand binding ([2]; [125I]-S36057, human MCH1 membranes, 10 µM): − (“−” indicates less than 50% inhibition at 10 μM) | A3: inhibition of radioligand binding (Human Melanocortin (MC3); human MC3 membranes, 10 µM): − (“−” indicates less than 50% inhibition at 10 μM)

NCCCC(=O)NC1C(OCc2ccccc2)OC(COCc2ccccc2)C(O)C1OCc1ccccc1 (stereo not shown) [compound 379]
A4: inhibition of radioligand binding, human melanocortin (MC4) (Human Melanocortin (MC4)): − (“−” indicates less than 50% inhibition at 10 μM) | A7: inhibition of radioligand binding, human μ-opioid (MOP) (Human μ-opioid (MOP)): − (“−” indicates less than 50% inhibition at 10 μM) | A10: inhibition of radioligand binding, human opioid (ORL1) (Human opioid (ORL1)): − (“−” indicates less than 50% inhibition at 10 μM) | A8: inhibition of radioligand binding, human neurokinin (NK1) (Human neurokinin (NK1)): + (“+” indicates greater than 50% inhibition at 10 μM) | A9: inhibition of radioligand binding, human neuropeptide Y (NPY-Y1) [1]: − (“−” indicates less than 50% inhibition at 10 μM) | A5: inhibition of radioligand binding, human melanocortin (MC5) (Human melanocortin (MC5)): + (“+” indicates greater than 50% inhibition at 10 μM) | A2: inhibition of radioligand binding, human κ-opioid (KOP) (Human κ-Opioid (KOP)): − (“−” indicates less than 50% inhibition at 10 μM) | A1: inhibition of radioligand binding, human δ-opioid (DOP) (Human δ-opioid (DOP)): − (“−” indicates less than 50% inhibition at 10 μM) | A11: inhibition of radioligand binding, mouse urotensin (mUR2) (Mouse urotensin (mUR2)): − (“−” indicates less than 50% inhibition at 10 μM) | A6: inhibition of radioligand binding, human melanin-concentrating hormone (MCH1) ([2]; [125I]-S36057): − (“−” indicates less than 50% inhibition at 10 μM) | A3: inhibition of radioligand binding, human melanocortin (MC3) (Human Melanocortin (MC3)): − (“−” indicates less than 50% inhibition at 10 μM)

COCC1OC(OCc2ccccc2)C(NC(=O)CNC(=N)N)C(OCc2ccc3ccccc3c2)C1O (stereo not shown) [compound 189]
A4: inhibition of radioligand binding (Human Melanocortin (MC4); FlashPlate): + (“+” indicates greater than 50% inhibition at 10 μM) | A7: inhibition of radioligand binding (Human μ-opioid (MOP); FlashPlate): − (“−” indicates less than 50% inhibition at 10 μM) | A10: inhibition of radioligand binding (Human opioid (ORL1); FlashPlate): − (“−” indicates less than 50% inhibition at 10 μM) | A8: inhibition of radioligand binding (Human neurokinin (NK1); filtration): + (“+” indicates greater than 50% inhibition at 10 μM) | A9: inhibition of radioligand binding ([1]; FlashPlate): − (“−” indicates less than 50% inhibition at 10 μM) | A5: inhibition of radioligand binding (Human melanocortin (MC5); FlashPlate): + (“+” indicates greater than 50% inhibition at 10 μM) | A2: inhibition of radioligand binding (Human κ-Opioid (KOP); filtration): − (“−” indicates less than 50% inhibition at 10 μM) | A1: inhibition of radioligand binding (Human δ-opioid (DOP); FlashPlate): − (“−” indicates less than 50% inhibition at 10 μM) | A11: inhibition of radioligand binding (Mouse urotensin (mUR2); FlashPlate): − (“−” indicates less than 50% inhibition at 10 μM) | A6: inhibition of radioligand binding ([2]; [125I]-S36057, FlashPlate): + (“+” indicates greater than 50% inhibition at 10 μM) | A3: inhibition of radioligand binding (Human Melanocortin (MC3); FlashPlate): + (“+” indicates greater than 50% inhibition at 10 μM)

[N-]=[N+]=N[C@H]1C(OCCNC(=N)N)O[C@H](COCc2ccccc2)[C@@H](O)[C@@H]1OCc1ccc2ccccc2c1 (stereo partly shown) [compound 127]
A4 radioligand binding, percentage inhibition (Human Melanocortin (MC4)): + (“+” indicates greater than 50% inhibition at 10 μM) | A7 radioligand binding, percentage inhibition (Human μ-opioid (MOP)): − (“−” indicates less than 50% inhibition at 10 μM) | A10 radioligand binding, percentage inhibition (Human opioid (ORL1)): − (“−” indicates less than 50% inhibition at 10 μM) | A8 radioligand binding, percentage inhibition (Human neurokinin (NK1)): + (“+” indicates greater than 50% inhibition at 10 μM) | A9 radioligand binding, percentage inhibition [1]: − (“−” indicates less than 50% inhibition at 10 μM) | A5 radioligand binding, percentage inhibition (Human melanocortin (MC5)): + (“+” indicates greater than 50% inhibition at 10 μM) | A2 radioligand binding, percentage inhibition (Human κ-Opioid (KOP)): − (“−” indicates less than 50% inhibition at 10 μM) | A1 radioligand binding, percentage inhibition (Human δ-opioid (DOP)): − (“−” indicates less than 50% inhibition at 10 μM) | A11 radioligand binding, percentage inhibition (Mouse urotensin (mUR2)): − (“−” indicates less than 50% inhibition at 10 μM) | A6 radioligand binding, percentage inhibition ([2]; [125I]-S36057): − (“−” indicates less than 50% inhibition at 10 μM) | A3 radioligand binding, percentage inhibition (Human Melanocortin (MC3)): − (“−” indicates less than 50% inhibition at 10 μM)
